Values belong to the compound of their own block, whether it stands above or below them.
Tests used:
[1] = Density measurement of mixtures of MCT and F6H8; format: physicochemical; conditions: mixture with about 61.5 wt.-% MCT, based on total weight of the oil phase
Text: By adapting the density of the oil phase to the density of the aqueous phase coalescence phenomena of the droplets as well as sedimentation phenomena, which destabilize the emulsion, can be decreased.

[2] = Solubility of perfluorocarbon contrast agents in oil phase; format: physicochemical
Text: Perfluoroctylbromide (PFOB) is a known contrast agent for the magnetic resonance spectroscopy.

Content of F6H8 in oil phase at which density of the oil mixture corresponds to the density of the aqueous phase [1]: about 38.5 wt.-%
Compound: CCCCCCCCC(F)(F)C(F)(F)C(F)(F)C(F)(F)C(F)(F)C(F)(F)F [Example F6H8, perfluorohexyloctane]

Solubility in PFOB [2]: can be dissolved in PFOB
Compound: FC(F)(F)C(F)(F)C(F)(F)C(F)(F)C(F)(F)C(F)(F)C(F)(F)C(F)(F)C(F)(F)C(F)(F)Br [PFDB, perfluorodecylbromide]

Solubility in MCT [2]: cannot be dissolved in MCT
Compound: FC(F)(F)C(F)(F)C(F)(F)C(F)(F)C(F)(F)C(F)(F)C(F)(F)C(F)(F)Br [PFOB, Perfluoroctylbromide, reference compound]

Reference: US10786583B2, “Pre-saturation of the liver and subsequent administration of the contrast agent” (B. Braun Melsungen AG, priority 2013, dated 2020)
